# Laboratory results as given in patent US20250344693A1, “HERBICIDE SUSPENSION CONCENTRATES AND METHOD FOR THEIR PREPARATION” (NUFARM AUSTRALIA LIMITED, priority 2022, published 2025).
# Experiment: Hot solution temperature: homogeneous solution of active with excipient or second active
# Format: physicochemical
# Protocol: Numerous materials may act to form solutions of agrochemicals at elevated temperature. The solubility of MCPA, 2,4-D) and mecoprop with a range of common excipients was assessed at elevated temperature. To establish the melting behaviour of the individual actives, each active (1.25 g) was weighed into a 40 mL vial and heated gradually using a hotplate and Asynt heating insert until full melted, and the melting range was noted. […] To establish hot solvent behaviour, a range of excipients were weighed into 40 mL vials (0.676 g) with each chosen active (1.25 g). The mixtures were then heated gradually until a fully homogeneous solution was observed and the temperature was noted as described above. Additionally, the potential for agrochemicals to act as solvents for a second agrochemical at elevated temperature was also studied by combining the active ingredients in a ratio of 1.85:1 active:active ‘solvent’ following the same procedure as described above. For example, in a mixture where the first active was MCPA (1.25 g) and the second was mecoprop (0.676 g) both actives were added to a 40 mL vial and heated following the procedure detailed above. Where a homogeneous phase is observed below the measured melting point of the study active ingredient, a hot solution is considered to have been formed and the excipient is deemed to act as a solvent at elevated temperature.
# Where the “solvent” is listed as “None”, the temperature stated represents the formation of a homogeneous melt.
structure (smiles),measurement,setting,value
"O=C(O)COc1ccc(Cl)cc1Cl [2,4-D, 2,4-dichlorophenoxyacetic acid]",Solution temp range (° C.),"2nd active Dichloroprop-P as solvent, ratio 1.85:1",130-132 °C
same,Solution temp range (° C.),"2nd active MCPA as solvent, ratio 1.85:1",140-142 °C
same,Solution temp range (° C.),"2nd active Mecoprop as solvent, ratio 1.85:1 active:active solvent",130-131 °C
same,temperature range where homogeneous solutions formed (° C.),"solvent 1,2-Propanediol",110-112 °C
same,temperature range where homogeneous solutions formed (° C.),solvent Altox 4894,121-125 °C
same,temperature range where homogeneous solutions formed (° C.),solvent Altox 4912,138-140 °C
same,temperature range where homogeneous solutions formed (° C.),solvent Altox 4913,116-120 °C
same,temperature range where homogeneous solutions formed (° C.),solvent Atlas G5000,129-131 °C
same,temperature range where homogeneous solutions formed (° C.),solvent Atlox 4915,134-137 °C
same,temperature range where homogeneous solutions formed (° C.),solvent Atlox 4916,140-141 °C
same,temperature range where homogeneous solutions formed (° C.),solvent Atplus 245,123-126 °C
same,temperature range where homogeneous solutions formed (° C.),solvent Atplus PFA,127-130 °C
same,temperature range where homogeneous solutions formed (° C.),solvent Atplus UEP,132-135 °C
same,temperature range where homogeneous solutions formed (° C.),solvent Crodamol AB,136-138 °C
same,temperature range where homogeneous solutions formed (° C.),solvent Crodamol GTCC,138-140 °C
same,temperature range where homogeneous solutions formed (° C.),solvent Dipropylene glycol dimethyl ether,114-116 °C
same,temperature range where homogeneous solutions formed (° C.),solvent Genapol X020,118-121 °C
same,temperature range where homogeneous solutions formed (° C.),solvent Genapol X050,120-123 °C
same,temperature range where homogeneous solutions formed (° C.),solvent Genapol X060,118-122 °C
same,temperature range where homogeneous solutions formed (° C.),solvent Genapol X080,118-121 °C
same,temperature range where homogeneous solutions formed (° C.),"solvent Glycerol, 1.25 g active, 0.676 g excipient",116-118 °C
same,temperature range where homogeneous solutions formed (° C.),solvent Multiwet MO85,140-143 °C
same,temperature range where homogeneous solutions formed (° C.),solvent PEG 400,122-123 °C
same,temperature range where homogeneous solutions formed (° C.),solvent PEG 1000,124-126 °C
same,temperature range where homogeneous solutions formed (° C.),solvent PEG 4000,134-136 °C
same,temperature range where homogeneous solutions formed (° C.),solvent Pluronic F68,137-140 °C
same,temperature range where homogeneous solutions formed (° C.),solvent Pluronic F127,137-140 °C
same,temperature range where homogeneous solutions formed (° C.),solvent Propylene glycol,110-112 °C
same,temperature range where homogeneous solutions formed (° C.),solvent Synperonic PE/L31,129-130 °C
same,temperature range where homogeneous solutions formed (° C.),solvent Synperonic PE/L64,132-135 °C
same,temperature range where homogeneous solutions formed (° C.),solvent Synprolam 35X15,123-126 °C
same,temperature range where homogeneous solutions formed (° C.),solvent Tween 22,120-124 °C
same,temperature range where homogeneous solutions formed (° C.),solvent Tween 23,120-124 °C
same,temperature range where homogeneous solutions formed (° C.),solvent Tween 24,120-124 °C
